Measured values as given in patent US20090042874A1, “ANTIDEPRESSANT HETEROARYL DERIVATIVES OF HETEROCYCLE-FUSED BENZODIOXANS” (WYETH, priority 2007, published 2009).
Structures can show the parent of a compound that is named as a salt.

Assays:
serotonin transporter = target: T1, serotonin transporter (Rattus norvegicus, UniProt P31652); assay: Displacement of 3H-paroxetine from male rat frontal cortical membranes (serotonin transporter affinity); format: binding; conditions: 3H-paroxetine displacement, read-out: 5-HT Transporter Affinity Ki
T1 construct: displace ^3H-paroxetine from male rat frontal cortical membranes; from tissue; host or cells: male rat frontal cortex membranes
Source text: Affinity of Compounds of the Invention for the Serotonin Transporter

human 5HT1A receptors = target: T2, human 5HT1A receptors (Homo sapiens, UniProt P08908); assay: Displacement of [3H] 8-OH-DPAT from 5HT1A receptor, CHO cells stably transfected with human 5HT1A receptors; format: binding; conditions: [3H] 8-OH-DPAT displacement, CHO cells with human 5HT1A; read-out: 5HT1A Receptor Affinity Ki
T2 construct: expressed in transfected cells; host or cells: CHO cells
T2 sequence (P08908 1-422): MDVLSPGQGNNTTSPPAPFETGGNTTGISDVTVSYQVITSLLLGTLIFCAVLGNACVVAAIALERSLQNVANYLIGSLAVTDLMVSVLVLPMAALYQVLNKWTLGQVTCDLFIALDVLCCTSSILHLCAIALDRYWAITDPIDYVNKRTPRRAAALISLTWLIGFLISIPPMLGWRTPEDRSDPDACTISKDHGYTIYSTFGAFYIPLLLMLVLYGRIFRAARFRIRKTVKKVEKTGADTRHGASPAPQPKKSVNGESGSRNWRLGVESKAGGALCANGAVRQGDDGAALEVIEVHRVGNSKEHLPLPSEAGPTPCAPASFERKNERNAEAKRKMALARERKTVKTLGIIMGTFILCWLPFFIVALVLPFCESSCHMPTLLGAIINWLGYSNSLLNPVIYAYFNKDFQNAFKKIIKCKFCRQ
Source text: High affinity for the serotonin 5HT1A receptor was established by testing the claimed compound's ability to displace [^3H] 8-OH-DPAT (dipropylamino-tetralin) from the 5HT1A serotonin receptor following a modification of the procedure of Hall et al., J. Neurochem. 44, 1685 (1985) which utilizes CHO cells stably transfected with human 5HT1A receptors.

T1 sequence (P31652 whole entry): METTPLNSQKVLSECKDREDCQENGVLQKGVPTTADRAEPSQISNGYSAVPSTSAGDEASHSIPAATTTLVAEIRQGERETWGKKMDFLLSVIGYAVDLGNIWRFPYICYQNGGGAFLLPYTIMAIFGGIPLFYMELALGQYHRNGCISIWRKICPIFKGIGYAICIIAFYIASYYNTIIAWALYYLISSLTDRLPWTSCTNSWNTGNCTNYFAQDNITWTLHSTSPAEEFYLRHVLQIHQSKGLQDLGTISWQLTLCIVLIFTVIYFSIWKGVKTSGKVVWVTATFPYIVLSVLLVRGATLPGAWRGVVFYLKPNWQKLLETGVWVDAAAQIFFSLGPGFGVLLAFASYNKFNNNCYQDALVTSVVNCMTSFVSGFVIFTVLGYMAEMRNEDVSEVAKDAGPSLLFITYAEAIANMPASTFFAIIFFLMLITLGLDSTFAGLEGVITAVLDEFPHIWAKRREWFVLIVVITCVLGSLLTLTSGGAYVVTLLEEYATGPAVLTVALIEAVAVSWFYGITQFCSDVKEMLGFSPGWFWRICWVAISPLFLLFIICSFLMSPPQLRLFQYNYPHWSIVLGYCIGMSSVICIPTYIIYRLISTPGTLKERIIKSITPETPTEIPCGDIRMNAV

Structure (SMILES)	melting point	Ki (serotonin transporter)	Ki (human 5HT1A receptors)
Cc1ccc2c3c(ccc2n1)OC[C@H](CN1CCC(Oc2ccc4c(c2)NC(=O)CO4)CC1)O3 (as salt: hydrochloride) [Example 1, 6-[(1-{[(2S)-8-methyl-2,3-dihydro[1,4]dioxino[2,3-f]quinolin-2-yl]methyl}piperidin-4-yl)oxy]-2H-1,4-benzoxazin-3(4H)-one dihydrochloride salt]	216 to 219 °C (dec.)		
Cc1ccc2c3c(ccc2n1)OC[C@H](CN1CCC(Cc2ccc4c(c2)NC(=O)CO4)CC1)O3 (as salt: hydrochloride) [Example 2, 6-[(1-{[(2S)-8-Methyl-2,3-dihydro[1,4]dioxino[2,3-f]quinolin-2-yl]methyl}piperidin-4-yl)methyl]-2H-1,4-benzoxazin-3(4H)-one dihydrochloride]	215 °C (dec.)		
Cc1ccc2c3c(ccc2n1)OC[C@H](CN1CCC(Oc2ccc4c(c2)N(C)C(=O)CO4)CC1)O3 (as salt: hydrochloride) [Example 5, 4-Methyl-6-[(1-{[(2S)-8-methyl-2,3-dihydro[1,4]dioxino[2,3-f]quinolin-2-yl]methyl}piperidin-4-yl)oxy]-2H-1,4-benzoxazin-3(4H)-one dihydrochloride salt]	164 °C (dec.)		
Cc1ccc2c3c(ccc2n1)OC[C@H](CNCCCCOc1ccc2c(c1)NC(=O)CO2)O3 (as salt: hydrochloride) [Example 6, 6-[4-({[(2S)-8-Methyl-2,3-dihydro[1,4]dioxino[2,3-f]quinolin-2-yl]methyl}amino)butoxy]-2H-1,4-benzoxazin-3(4H)-one dihydrochloride salt]	143 °C (dec.)		
Cc1ccc2c3c(ccc2n1)OC[C@H](CNCCCOc1ccc2c(c1)NC(=O)CO2)O3 (as salt: hydrochloride) [Example 7, 6-[3-({[(2S)-8-Methyl-2,3-dihydro[1,4]dioxino[2,3-f]quinolin-2-yl]methyl}amino)propoxy]-2H-1,4-benzoxazin-3(4H)-one dihydrochloride salt]	184 °C (dec.)		
Cc1ccc2c3c(ccc2n1)OC[C@H](CN1CC[C@H](Oc2ccc4c(c2)NC(=O)CO4)C1)O3 (as salt: hydrochloride) [Example 8, 6-{[(3S)-1-{[(2S)-8-Methyl-2,3-dihydro[1,4]dioxino[2,3-f]quinolin-2-yl]methyl}pyrrolidin-3-yl]oxy}-2H-1,4-benzoxazin-3(4H)-one dihydrochloride salt]	183 °C (dec.)		
Cc1ccc2c3c(ccc2n1)OC[C@H](CN1CC[C@@H](Oc2ccc4c(c2)NC(=O)CO4)C1)O3 (as salt: hydrochloride) [Example 9, 6-{[(3R)-1-{[(2S)-8-Methyl-2,3-dihydro[1,4]dioxino[2,3-f]quinolin-2-yl]methyl}pyrrolidin-3-yl]oxy}-2H-1,4-benzoxazin-3(4H)-one dihydrochloride salt]	183 °C (dec.)		
CNCCCCOc1ccc2c(c1)NC(=O)CO2 (as salt: hydrochloride) [Example 10, 6-[4-(Methylamino)butoxy]-2H-1,4-benzoxazin-3(4H)-one hydrochloride salt]	210 to 212 °C		
Cc1ccc2c3c(ccc2n1)OC[C@H](CN1CCC(Cc2ccc4c(c2)NC(=O)CO4)CC1)O3 [Example 2, 6-[(1-{[(2S)-8-Methyl-2,3-dihydro[1,4]dioxino[2,3-f]quinolin-2-yl]methyl}piperidin-4-yl)methyl]-2H-1,4-benzoxazin-3(4H)-one dihydrochloride]		8.9 nM	0.16 nM
Cc1ccc2c3c(ccc2n1)OC[C@H](CN1CCC(Oc2ccc4c(c2)N(C)C(=O)CO4)CC1)O3 [Example 5, 4-Methyl-6-[(1-{[(2S)-8-methyl-2,3-dihydro[1,4]dioxino[2,3-f]quinolin-2-yl]methyl}piperidin-4-yl)oxy]-2H-1,4-benzoxazin-3(4H)-one dihydrochloride salt]		11 nM	0.54 nM
Cc1ccc2c3c(ccc2n1)OC[C@H](CNCCCCOc1ccc2c(c1)NC(=O)CO2)O3 [Example 6, 6-[4-({[(2S)-8-Methyl-2,3-dihydro[1,4]dioxino[2,3-f]quinolin-2-yl]methyl}amino)butoxy]-2H-1,4-benzoxazin-3(4H)-one dihydrochloride salt]		11.9 nM	0.25 nM
Cc1ccc2c3c(ccc2n1)OC[C@H](CNCCCOc1ccc2c(c1)NC(=O)CO2)O3 [Example 7, 6-[3-({[(2S)-8-Methyl-2,3-dihydro[1,4]dioxino[2,3-f]quinolin-2-yl]methyl}amino)propoxy]-2H-1,4-benzoxazin-3(4H)-one dihydrochloride salt]			0.1 nM
Cc1ccc2c3c(ccc2n1)OC[C@H](CN1CC[C@H](Oc2ccc4c(c2)NC(=O)CO4)C1)O3 [Example 8, 6-{[(3S)-1-{[(2S)-8-Methyl-2,3-dihydro[1,4]dioxino[2,3-f]quinolin-2-yl]methyl}pyrrolidin-3-yl]oxy}-2H-1,4-benzoxazin-3(4H)-one dihydrochloride salt]		18.2 nM	1.49 nM
Cc1ccc2c3c(ccc2n1)OC[C@H](CN1CC[C@@H](Oc2ccc4c(c2)NC(=O)CO4)C1)O3 [Example 9, 6-{[(3R)-1-{[(2S)-8-Methyl-2,3-dihydro[1,4]dioxino[2,3-f]quinolin-2-yl]methyl}pyrrolidin-3-yl]oxy}-2H-1,4-benzoxazin-3(4H)-one dihydrochloride salt]		4.5 nM	3.53 nM
CNCCCCOc1ccc2c(c1)NC(=O)CO2 [Example 10, 6-[4-(Methylamino)butoxy]-2H-1,4-benzoxazin-3(4H)-one hydrochloride salt]		58.5 nM	

The next lines start with the values.

melting point	Ki (serotonin transporter)	Ki (human 5HT1A receptors)	Structure (SMILES)
193 to 194 °C			CNCCCOc1ccc2c(c1)NC(=O)CO2 (as salt: hydrochloride) [Example 11, 6-[3-(Methylamino)propoxy]-2H-1,4-benzoxazin-3(4H)-one]
205 to 208 °C			Cc1ccc2c3c(ccc2n1)OC[C@H](CN1CCC(Cc2ccc4c(c2)N(C)C(=O)CO4)CC1)O3 (as salt: hydrochloride) [Example 12, 4-Methyl-6-[(1-{[(2S)-8-methyl-2,3-dihydro[1,4]dioxino[2,3-f]quinolin-2-yl]methyl}piperidin-4-yl)methyl]-2H-1,4-benzoxazin-3(4H)-one dihydrochloride salt]
185 to 189 °C			Cc1ccc2c3c(ccc2n1)OC[C@H](CN1CCC(CCc2ccc4c(c2)N(C)C(=O)CO4)CC1)O3 (as salt: hydrochloride) [Example 13, 4-Methyl-6-[2-(1-{[(2S)-8-methyl-2,3-dihydro[1,4]dioxino[2,3-f]quinolin-2-yl]methyl}piperidin-4-yl)ethyl]-2H-1,4-benzoxazin-3(4H)-one dihydrochloride salt]
202 to 205 °C			Cc1ccc2c3c(ccc2n1)OC[C@H](CN1CCC(CCc2ccc4c(c2)NC(=O)CO4)CC1)O3 (as salt: hydrochloride) [Example 14, 6-[2-(1-{[(2S)-8-Methyl-2,3-dihydro[1,4]dioxino[2,3-f]quinolin-2-yl]methyl}piperidin-4-yl)ethyl]-2H-1,4-benzoxazin-3(4H)-one dihydrochloride salt]
249 to 251 °C			Cc1ccc2c3c(ccc2n1)OC[C@H](CN1CCCC(Cc2ccc4c(c2)N(C)C(=O)CO4)C1)O3 (stereo partly drawn) (as salt: hydrochloride) [Example 15, 4-Methyl-6-[(1-{[(2S)-8-methyl-2,3-dihydro[1,4]dioxino[2,3-f]quinolin-2-yl]methyl}piperidin-3-yl)methyl]-2H-1,4-benzoxazin-3(4H)-one dihydrochloride salt]
200 to 205 °C			Cc1ccc2c3c(ccc2n1)OC[C@H](CN1CCCC(Cc2ccc4c(c2)NC(=O)CO4)C1)O3 (stereo partly drawn) (as salt: hydrochloride) [Example 16, 6-[(1-{[(2S)-8-Methyl-2,3-dihydro[1,4]dioxino[2,3-f]quinolin-2-yl]methyl}piperidin-3-yl)methyl]-2H-1,4-benzoxazin-3(4H)-one dihydrochloride salt]
240 °C (dec.)			Cc1ccc2c3c(ccc2n1)OC[C@H](CNC1CCN(c2ccc4c(c2)NC(=O)CO4)CC1)O3 (as salt: hydrochloride) [Example 18, 6-(4-{[(8-methyl-2,3-dihydro[1,4]dioxino[2,3-f]quinolin-2-yl)methyl]amino}piperidin-1-yl)-2H-1,4-benzoxazin-3(4H)-one dihydrochloride salt]
	81 nM		CNCCCOc1ccc2c(c1)NC(=O)CO2 [Example 11, 6-[3-(Methylamino)propoxy]-2H-1,4-benzoxazin-3(4H)-one]
	6.65 nM	0.29 nM	Cc1ccc2c3c(ccc2n1)OC[C@H](CN1CCC(Cc2ccc4c(c2)N(C)C(=O)CO4)CC1)O3 [Example 12, 4-Methyl-6-[(1-{[(2S)-8-methyl-2,3-dihydro[1,4]dioxino[2,3-f]quinolin-2-yl]methyl}piperidin-4-yl)methyl]-2H-1,4-benzoxazin-3(4H)-one dihydrochloride salt]
